# Values of other authors, collected in Sander's compilation of Henry's law constants (doi:10.1007/978-94-007-2275-0).
# Test: Henry solubility constant Hcp at 298.15 K (mol/(m3 Pa))
# Settings: reference: Warneck and Williams (2012); cited value
row,Henry solubility constant Hcp,SMILES
1,9.9e-05,[O]N=O [nitrogen dioxide]
2,1.9e-05,[N]=O [nitrogen monoxide]
3,1.2e-05,O=O [oxygen]
4,0.0056,CSC [dimethyl sulfide]
5,0.00024,[N-]=[N+]=O [dinitrogen monoxide]
6,1.4e-05,[Ar] [argon]

# The remaining lines, values behind:
row,SMILES,Henry solubility constant Hcp
1,OO [hydrogen peroxide],910
2,[C-]#[O+] [carbon monoxide],9.7e-06
3,FS(F)(F)(F)(F)F [sulfur hexafluoride],2.4e-06
4,FC(F)(F)F [tetrafluoromethane],2.1e-06
5,S=C=S [carbon disulfide],0.00061
6,O=C=S [carbon oxide sulfide],0.00021
7,COO [methyl hydroperoxide],2.9
8,FC(F)(Cl)Cl [dichlorodifluoromethane],3e-05
9,CC(=O)OO[N+](=O)[O-] [peroxyacetyl nitrate],0.029
